For experiment [1], the target named is Sigma non-opioid intracellular receptor 1 (Homo sapiens, UniProt Q99720). In words: Binding affinity against sigma receptor was determined.
Experiment [2] deals with Mus musculus. In words: In vivo antinociceptive activity was tested through tail flick (TF) with this compound in mouse. It is filed as functional, organism-based.
The species entered for experiment [3] is Cavia porcellus. The experiment in a line: Ratio of potencies against PCP receptor to that of sigma receptor.
In experiment [4] the target is T1, Glutamate NMDA receptor (Rattus norvegicus) (UniProt P35439+Q00959+Q00960+Q00961+Q62645+Q8VHN2+Q9R1M7). In words: Ratio of potencies against PCP receptor to that of Mu receptor of rat. The format is protein-complex assay.
Experiment [5] deals with Mus musculus. In words: In vivo antinociceptive activity at 20 mg/kg was tested through injecting 2 mg/kg ip phenylquinone, activity calculated by total number of abdominal-stretches per group counted over a 1 min period. The format is functional.
Experiment [6] relates to Cercopithecidae. In words: Ratio of potencies against Mu receptor of monkey to that of rat.
For experiment [7], the species on record is Cavia porcellus. In words: Ratio of potencies against sigma receptor to that of Mu receptor of rat.
Experiment [8] concerns Mus musculus. The experiment in a line: In vivo antinociceptive activity was tested through hot plate (HP) and counting jumps or paw licks. The format is functional, organism-based.
Experiment [9] deals with Glutamate NMDA receptor. The experiment in a line: Inhibition using [3H]TCP in homogenate of rat brain. It is filed as tissue-based.
The target of experiment [10] is Mu-type opioid receptor (Homo sapiens) (UniProt P35372). In words: Ratio of potencies against Mu receptor to that of kappa receptor of monkey. Particulars: Cercopithecidae; target entry is the homologue from another species.
Mu-type opioid receptor (Homo sapiens), sequence (P35372 whole entry): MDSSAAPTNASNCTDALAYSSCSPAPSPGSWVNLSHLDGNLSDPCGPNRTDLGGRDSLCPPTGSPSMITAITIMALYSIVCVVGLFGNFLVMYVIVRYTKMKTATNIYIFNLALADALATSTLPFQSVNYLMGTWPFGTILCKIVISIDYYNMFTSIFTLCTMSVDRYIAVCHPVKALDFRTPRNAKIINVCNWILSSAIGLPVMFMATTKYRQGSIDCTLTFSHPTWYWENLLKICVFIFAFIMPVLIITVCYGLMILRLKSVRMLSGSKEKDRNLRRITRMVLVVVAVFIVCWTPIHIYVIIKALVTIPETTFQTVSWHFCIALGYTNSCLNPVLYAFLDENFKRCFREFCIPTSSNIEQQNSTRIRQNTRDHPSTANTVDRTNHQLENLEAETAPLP
The target of experiment [11] is Mu-type opioid receptor (Rattus norvegicus, UniProt P33535). The experiment in a line: Inhibition against mu receptor using [3H]DAMGO in homogenate of rat brain cerebellum. The format is tissue-based.
Mu-type opioid receptor, sequence (P33535 whole entry): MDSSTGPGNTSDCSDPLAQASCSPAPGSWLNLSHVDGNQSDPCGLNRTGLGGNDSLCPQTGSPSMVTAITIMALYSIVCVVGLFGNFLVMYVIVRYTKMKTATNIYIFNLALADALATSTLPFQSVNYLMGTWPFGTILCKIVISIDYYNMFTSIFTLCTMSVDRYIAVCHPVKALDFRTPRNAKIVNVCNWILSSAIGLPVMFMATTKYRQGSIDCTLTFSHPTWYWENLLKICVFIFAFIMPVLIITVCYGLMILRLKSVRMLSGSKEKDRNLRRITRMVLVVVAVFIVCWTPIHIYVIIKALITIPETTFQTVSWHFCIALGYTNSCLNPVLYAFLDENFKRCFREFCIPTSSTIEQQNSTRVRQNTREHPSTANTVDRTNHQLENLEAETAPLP
Experiment [12] has as its system Mus musculus. The experiment in a line: In vivo antinociceptive activity at 30 mg/kg was tested through injecting 2 mg/kg ip phenylquinone, activity calculated by total number of abdominal-stretches per group counted over a 1 min period. The format is functional.
For experiment [13], the target named is T1, Glutamate NMDA receptor (Rattus norvegicus). In words: Ratio of potencies of (+) and (-) enantiomers against PCP in rats.
Experiment [14] addresses Mu-type opioid receptor (Homo sapiens) (UniProt P35372). The experiment in a line: Ratio of potencies of (+) and (-) enantiomers against Mu receptors in monkeys. Particulars: Cercopithecidae; target entry is the homologue from another species.
In experiment [15] the target is Kappa-type opioid receptor (Homo sapiens) (UniProt P41145). In words: Ratio of potencies of (+) and (-) enantiomers against kappa receptors in monkeys. Particulars: Cercopithecidae; target entry is the homologue from another species.
Kappa-type opioid receptor (Homo sapiens), sequence (P41145 whole entry): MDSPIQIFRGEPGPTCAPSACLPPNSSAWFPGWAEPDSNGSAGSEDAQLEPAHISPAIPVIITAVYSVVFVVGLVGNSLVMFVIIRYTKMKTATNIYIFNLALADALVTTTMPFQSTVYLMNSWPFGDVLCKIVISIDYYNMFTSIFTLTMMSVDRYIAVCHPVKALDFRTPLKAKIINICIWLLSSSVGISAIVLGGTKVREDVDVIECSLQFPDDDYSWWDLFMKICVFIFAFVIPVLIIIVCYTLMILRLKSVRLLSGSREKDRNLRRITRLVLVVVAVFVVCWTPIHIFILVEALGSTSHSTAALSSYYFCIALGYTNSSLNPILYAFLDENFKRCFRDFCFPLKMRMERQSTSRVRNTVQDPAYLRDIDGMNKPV
Experiment [16] has as its target Mu-type opioid receptor (Rattus norvegicus) (UniProt P33535). The experiment in a line: Ratio of potencies of (+) and (-) enantiomers against Mu receptors in Rats.
For experiment [17], the system named is Mus musculus. In words: Compound was tested in vivo for its narcotic antagonistic activity of the antinociceptive effect in mouse. The format is functional.
Experiment [18] relates to Mus musculus. In words: In vivo for its narcotic antagonistic activity of the antinociceptive effect in mouse. The format is functional, organism-based.
The test system of experiment [19] is Mus musculus. In words: In vivo antinociceptive activity at 30 mg/kg was tested through hot plate (HP) by placing mouse on hot plate, and calculating number of times it jumps or licks its paw in 5 seconds. The format is functional.
Experiment [20] has as its system Mus musculus. In words: In vivo antinociceptive activity was tested through tail flick (TF) with this compound in mouse at 30 mg/kg concentration. The format is functional.
In experiment [21] the test system is Mus musculus. The experiment in a line: In vivo antinociceptive activity through injecting 2 mg/kg ip phenylquinone, activity calculated by total number of abdominal-stretches per group counted over a 1 min period; Inactive. It is filed as functional, organism-based. The arrangement: dose 2 mg/kg.
In experiment [22] the test system is Mus musculus. In words: Compound was tested in vivo for its narcotic antagonistic activity of the antinociceptive effect in mouse at 30 mg/kg. The format is functional.
In experiment [23] the test system is Mus musculus. In words: In vivo antinociceptive activity at 1 mg/kg was tested through hot plate (HP) by placing mouse on hot plate, and calculating number of times it jumps or licks its paw in 5 seconds. It is filed as functional.
Experiment [24] relates to Mus musculus. In words: In vivo antinociceptive activity was tested through injecting 2 mg/kg ip phenylquinone, activity calculated by total number of abdominal-stretches. Particulars: route intraperitoneal. It is filed as functional, Abdomen.
Experiment [25] relates to Mus musculus. In words: In vivo antinociceptive activity at 10 mg/kg was tested through hot plate (HP) by placing mouse on hot plate, and calculating number of times it jumps or licks its paw in 5 seconds. The format is functional.
Experiment [26] has as its system Mus musculus. In words: In vivo antinociceptive activity at 10 mg/kg was tested through injecting 2 mg/kg ip phenylquinone, activity calculated by total number of abdominal-stretches per group counted over a 1 min period. It is filed as functional.

The source made the active and inactive calls. The calls are words filed in the database; no cut-off is given here.

Sigma non-opioid intracellular receptor 1, sequence (Q99720 whole entry): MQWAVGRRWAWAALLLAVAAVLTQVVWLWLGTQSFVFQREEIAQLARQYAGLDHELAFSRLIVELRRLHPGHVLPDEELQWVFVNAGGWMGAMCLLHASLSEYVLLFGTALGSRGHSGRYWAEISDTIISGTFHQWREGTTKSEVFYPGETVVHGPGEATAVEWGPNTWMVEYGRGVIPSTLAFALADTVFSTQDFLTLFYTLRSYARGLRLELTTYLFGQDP
Mu-type opioid receptor (Rattus norvegicus), sequence (P33535 whole entry): as the sequence (P33535 whole entry) above

As usually defined, the Ki is a measure of affinity in units of concentration, obtained from inhibition or displacement. The compound `C=CCN1CC[C@]2(C)c3cc(O)ccc3CC1[C@@H]2C` (single isomer, unassigned; (+)) returned a Ki in [1] of 124 nM.

Usually Inhibition stands for the change of the read-out against control, counted positive when it falls. With `C[C@@H]1C2Cc3ccc(O)cc3[C@]1(C)CCN2C`, the result in [2] and in experiment [8] was inactive. In addition, the Ratio in experiment [3] came out at 0.03; in experiment [4], 0.008; in [6], 0.3; in experiment [7], 0.3; in [10], 2.7. In addition, in experiment [5], the Inhibition was 43%. The Ki in [9] was 41 nM; in experiment [11] it was 4970 nM.

For `CCCCN1CC[C@]2(C)c3cc(O)ccc3CC1[C@@H]2C`, the outcome in [2] and in experiment [8] was inactive. The Inhibition in experiment [12] is listed as 40%. For the same compound, the Ratio in experiment [3] came out at 5.9; in experiment [4], 47; in [13] it was 1.5; in [6], 0.3; in experiment [7], 8; in experiment [14] it was 365. In addition, the Ratio in experiment [15] was found to be 160; in experiment [16], 221; in experiment [10], 1.4. Also, the Ki was determined as 613 nM in [9] and 13 nM in experiment [11]. Also, in experiment [17], the Activity amounted to 1.5.

Turning to `C=CCN1CCC2c3cc(O)ccc3CC1C2C` (single isomer, unassigned; (-)), in experiment [1], the Ki amounted to 4300 nM.

The inhibition in vivo is how much of the control response was suppressed. In the case of `C[C@H]1C2Cc3ccc(O)cc3[C@@]1(C)CCN2`, in experiment [18], the result was inactive. In addition, the Inhibition in experiment [12] was 66%. In addition, the inhibition in vivo at 30 mg/kg in experiment [19] is 38%; in experiment [20], 13%. The Ki was 197 nM in experiment [9] and 23 nM in [11].

With `CCCN1CC[C@@]2(C)c3cc(O)ccc3CC1[C@H]2C`, the result in [2], in experiment [21] and in [8] was inactive. In addition, the Ratio in [3] stood at 14.1; in experiment [4], 0.1; in experiment [6], 0.2; in experiment [7], 0.008; in experiment [10], 0.5. The inhibition in vivo at 30 mg/kg in experiment [22] came out at 20%. For the same compound, the Ki stood at 606 nM in [9] and 5220 nM in [11].

`CCN1CC[C@]2(C)c3cc(O)ccc3CC1[C@@H]2C`: the outcome in experiment [2] was inactive. The inhibition in vivo at 1 mg/kg in [23] was 13%. Moreover, in experiment [19], the inhibition in vivo at 30 mg/kg is 25%. Moreover, the Activity in [24] is 1.4; in experiment [17], 3.7. Further, the inhibition in vivo at 10 mg/kg in experiment [25] is 25%. The Ki worked out at 1870 nM in experiment [9] and 32 nM in experiment [11].

As for `C[C@@H]1C2Cc3ccc(O)cc3[C@]1(C)CCN2`, the result in experiment [18] was inactive. In [20], this compound gave an inhibition in vivo at 30 mg/kg of 27%. The Inhibition in [26] is reported as 23%. For the same compound, the inhibition in vivo at 10 mg/kg in [25] is 13%. For the same compound, the figures for the Ki in experiment [9] and in experiment [11] were 30 nM and 470 nM, respectively.

(Values after ChEMBL document CHEMBL1127360, “Antipodal alpha-N-(methyl through decyl)-N-normetazocines (5,9 alpha-dimethyl-2'-hydroxy-6,7-benzomorphans): in vitro and in vivo properties” (J Med Chem, 1994).)
